Reference: patent US5656629A, “6-substituted pyrazolo (3,4-d)pyrimidin-4-ones and compositions and methods of use thereof” (Sanofi Winthrop, Inc., priority 1995, dated 1997)

Key:
[1] = test system: Spontaneously hypertensive rats (SHR); assay: antihypertensive activity in conscious spontaneously hypertensive rats (mean arterial pressure); type: in vivo; conditions: Rattus norvegicus, SHR iv; for ED25: 5 min, 5 min after dose, cumulative dosing, read-out: ED25, change in mean arterial pressure
Protocol: After a 2 day recovery from surgery, three baseline blood pressure measurements were made at 5 min intervals in conscious SHR. Compounds to be tested or vehicle were then administered intravenously in a dose-dependent manner (0.3-10 mg base/kg) while arterial pressure was recorded continuously on a polygraph. The mean arterial pressure response was measured 5 minutes after the administration of each dose of the test compound and the next dose given in a cumulative dose fashion. The response to each dose of the test compound was calculated as the difference from the mean of the three baseline measurements.

cGMP-PDE V = target: T1, cGMP-PDE V (Homo sapiens, UniProt O76074); assay: cGMP-PDE V inhibition (isozyme isolated from cardiovascular tissue); type: biochemical, various animal species and man; conditions: for inhibition at 0.1 µM / inhibition at 1 µM / inhibition at 0.01 µM / inhibition at 10 µM: read-out: Percent Inhibition cGMP-PDE V
T1 construct: isolated from cardiovascular tissues (heart and aorta); from tissue; host or cells: cardiovascular tissues (heart and aorta)
Text: The cGMP-PDE and other PDE isozymes were isolated from cardiovascular tissues (heart and aorta) of various animal species and man by anion-exchange and affinity chromatography as described by Silver et al., Sec. Messeng. Phos. […] Cyclic Nucleotide Res. 10:69-92.

Compound | IC50 (cGMP-PDE V) [nM] | inhibition at 0.1 µM (cGMP-PDE V) [%] | inhibition at 1 µM (cGMP-PDE V; 1 μM) [%] | other results
CCc1[nH]n(C2CCCC2)c2nc(Cc3ccc([N+](=O)[O-])cc3)nc(=O)c1-2 [25(a), 1-cyclopentyl-3-ethyl-6-(4-nitrophenylmethyl)pyrazolo[3,4-d]pyrimidin-4-one] | 76 |  |  | change in vivo at 10 mg/kg [1]: -5%
CCc1nn(C2CCCC2)c2nc(Cn3cccc3)[nH]c(=O)c12 [Example 5, 1-cyclopentyl-3-ethyl-6-(1-pyrrolylmethyl)-pyrazolo[3,4-d]pyrimidin-4-one] | 310 |  |  | 
CCc1[nH]n(C2CCCC2)c2nc(Cc3cccc(O)c3)nc(=O)c1-2 [Example 20, 1-cyclopentyl-3-ethyl-6-(3-hydroxyphenylmethyl)pyrazolo[3,4-d]pyrimidin-4-one] | 86 |  |  | ED25 [1]: 10.1 mg/kg; change in vivo at 10 mg/kg [1]: -23%
CCc1[nH]n(C2CCCC2)c2nc(Cc3ccc(OC(=O)c4ccc(CN(CC)CC)cc4)cc3)nc(=O)c1-2 [33(b), 1-cyclopentyl-3-ethyl-6-[4-[4-(diethylaminomethyl)phenylcarbonyloxy]phenylmethyl]pyrazolo[3,4-d]pyrimidin-4-one] |  | 56 |  | ED25 [1]: 9.3 mg/kg; change in vivo at 10 mg/kg [1]: -27%
CCc1[nH]n(C2CCCC2)c2nc(Oc3ccccc3)nc(=O)c1-2 [Example 39, 1-cyclopentyl-3-ethyl-6-(phenyloxy)pyrazolo[3,4-d]pyrimidin-4-one] |  | 33 | 74 | 
CCc1[nH]n(C2CCCC2)c2nc(Cc3ccsc3)nc(=O)c1-2 [Example 31, 1-cyclopentyl-3-ethyl-6-(3-thienylmethyl)pyrazolo[3,4-d]pyrimidin-4-one] | 30 |  |  | 
CCc1nn(C2CCCC2)c2nc(Cn3cnc4ccccc43)[nH]c(=O)c12 [12(b), 1-cyclopentyl-3-ethyl-6-[1-benzimidazolylmethyl]pyrazolo[3,4-d]pyrimidin-4-one] |  | 17 | 39 | 
CCc1nn(C2CCCC2)c2nc(Cn3cccn3)[nH]c(=O)c12 [23(b), 1-cyclopentyl-3-ethyl-6-(1-pyrazolylmethyl)pyrazolo[3,4-d]pyrimidin-4-one] |  |  | 33 | 
CCc1[nH]n(C2CCCC2)c2nc(Cc3ccc(OC)c(OC)c3)nc(=O)c1-2 [3(b), 1-cyclopentyl-3-ethyl-6-(3,4-dimethoxyphenylmethyl)-pyrazolo[3,4-d)pyrimidin-4-one] | 22 |  |  | 
CCc1[nH]n(C2CCCC2)c2nc(Cc3ccc(-n4ccnc4)cc3)nc(=O)c1-2 [36(b), 1-cyclopentyl-3-ethyl-6-[4-(1-imidazolyl)phenylmethyl]pyrazolo[3,4-d]pyrimidin-4-one] |  | 26 | 62 | 
CCc1[nH]n(C2CCCC2)c2nc(Cc3ccccc3OC)nc(=O)c1-2 [27(b), 1-cyclopentyl-3-ethyl-6-(2-methoxyphenylmethyl)pyrazolo[3,4-d]pyrimidin-4-one] |  | 25 | 73 | 
CCc1[nH]n(C2CCCC2)c2nc(Nc3ccccc3)nc(=O)c1-2 [38(d), 1-cyclopentyl-3-ethyl-6-(phenylamino)pyrazolo[3,4-d]pyrimidin-4-one] | 270 |  |  | 
CCc1[nH]n(C2CCCC2)c2nc(Cc3c(C)noc3C)nc(=O)c1-2 [28(b), 1-cyclopentyl-3-ethyl-6-(3,5-dimethyl-4-isoxazolylmethyl)pyrazolo[3,4-d]pyrimidin-4-one] |  |  | 48 | 
CCc1nn(C2CCCC2)c2nc(Cn3ccnc3)[nH]c(=O)c12 [18(b), 1-cyclopentyl-3-ethyl-6-(1-imidazolylmethyl)pyrazolo[3,4-d]pyrimidin-4-one] |  |  | 33 | 
1-cyclopentyl-3-ethyl-6-[3,5-dimethylamino-4-hydroxyphenylmethyl]pyrazolo[3,4-d]pyrimidin-4-one [Example 14] |  |  |  | Percent Inhibition cGMP-PDE V (cGMP-PDE V; 1 μM): 28%; Percent Inhibition cGMP-PDE V (cGMP-PDE V; 10 μM): 77%
CCc1[nH]n(C2CCCC2)c2nc(Cc3cccc(OC)c3)nc(=O)c1-2 [Example 19, 1-cyclopentyl-3-ethyl-6-(3-methoxyphenylmethyl)pyrazolo[3,4-d]pyrimidin-4-one] | 33 |  |  | ED25 [1]: 11 mg/kg; change in vivo at 10 mg/kg [1]: -21%
Cc1[nH]n(C(C)(C)C)c2nc(Cc3ccccc3)nc(=O)c1-2 [37(d), 1-tert-butyl-3-methyl-6-(phenylmethyl)pyrazolo[3,4-d]pyrimidin-4-one] |  | 36 | 78 | 

Compound | IC50 (cGMP-PDE V) [nM] | inhibition at 0.1 µM (cGMP-PDE V) [%] | inhibition at 1 µM (cGMP-PDE V; 1 μM) [%] | other results
CCc1nn(C2CCCC2)c2nc(Cc3cccc(OCCN4CCOCC4)c3)[nH]c(=O)c12 [21(c), 1-cyclopentyl-3-ethyl-6-[3-[2-(4-morpholinyl)ethoxy]phenylmethyl]pyrazolo[3.4-d]pyrimidin-4-one] | 420 |  |  | 
CCc1[nH]n(C2CCCC2)c2nc(Cc3cccn3C)nc(=O)c1-2 [Example 22, 1-cyclopentyl-3-ethyl-6-(1-methyl-2-pyrrolylmethyl)pyrazolo[3,4-d]pyrimidin-4-one] | 300 |  |  | 
CCc1[nH]n(C2CCCC2)c2nc(Cc3cccs3)nc(=O)c1-2 [Example 32, 1-cyclopentyl-3-ethyl-6-(2-thienylmethyl)pyrazolo[3,4-d]pyrimidin-4-one] |  | 58 | 89 | inhibition at 0.01 µM (cGMP-PDE V): 24%
CCc1[nH]n(C2CCCC2)c2nc(Cc3ccccn3)nc(=O)c1-2 [Example 9, 1-cyclopentyl-3-ethyl-6-(2-pyridinylmethyl)pyrazolo[3,4-d]pyrimidin-4-one] | 540 |  |  | 
CCc1[nH]n(C2CCCC2)c2nc(Cc3ccc(OCc4nnn[nH]4)cc3)nc(=O)c1-2 [11(b), 1-cyclopentyl-3-ethyl-6-[4-(5-tetrazolylmethoxy)phenylmethyl]pyrazolo[3,4-d]pyrimidin-4-one] | 310 |  |  | change in vivo at 10 mg/kg [1]: -4%
CCc1[nH]n(C2CCCC2)c2nc(Cc3ccncc3)nc(=O)c1-2 [4(b), 1-cyclopentyl-3-ethyl-6-(4-pyridinylmethyl)pyrazolo[3,4-d]pyrimidin-4-one] | 650 |  |  | 
CCc1[nH]n(C2CCCC2)c2nc(Cc3cccnc3)nc(=O)c1-2 [Example 13, 1-cyclopentyl-3-ethyl-6-[3-pyridinylmethyl]pyrazolo[3,4-d]pyrimidin-4-one] | 660 |  |  | 
CCc1[nH]n(C2CCCC2)c2nc(Cc3ccc(OCC(=O)O)cc3)nc(=O)c1-2 [8(b), 1-cyclopentyl-3-ethyl-6-[4-(carboxymethoxy)phenylmethyl]pyrazolo[3,4-d]pyrimidin-4-one] | 1200 |  |  | 
CCc1[nH]n(C2CCCC2)c2nc(CO)nc(=O)c1-2 [Example 17, 1-cyclopentyl-3-ethyl-6-(hydroxymethyl)pyrazolo[3,4-d]pyrimidin-4-one] |  |  | 20 | inhibition at 10 µM (cGMP-PDE V; 10 μM): 61%
CCc1[nH]n(C2CCCC2)c2nc(Cc3ccccc3N)nc(=O)c1-2 [Example 34, 1-cyclopentyl-3-ethyl-6-(2-aminophenylmethyl)pyrazolo[3,4-d]pyrimidin-4-one] |  | 45 | 78 | 
CCc1[nH]n(C2CCCC2)c2nc(Cc3ccc(NS(C)(=O)=O)cc3)nc(=O)c1-2 [Example 29, 1-cyclopentyl-3-ethyl-6-[4-(methylsulfonylamino)phenylmethyl]pyrazolo[3,4-d]pyrimidin-4-one] |  | 94 |  | inhibition at 0.01 µM (cGMP-PDE V): 77%
CCc1[nH]n(C2CCCC2)c2nc(Cc3ccc(N(C)C)cc3)nc(=O)c1-2 [Example 35, 1-cyclopentyl-3-ethyl-6-(4-dimethylaminophenylmethyl)pyrazolo[3,4-d]pyrimidin-4-one] |  | 34 | 53 | 
CCc1nn(C2CCCC2)c2nc(Cc3ccc(OCCN4CCOCC4)cc3)[nH]c(=O)c12 [10(b)] | 270 |  |  | change in vivo at 10 mg/kg [1]: -17%
CCc1[nH]n(C2CCCC2)c2nc(Cc3ccc(C(F)(F)F)cc3)nc(=O)c1-2 [24(b), 1-cyclopentyl-3-ethyl-6-(4-trifluoromethylphenylmethyl) pyrazolo[3,4-d]pyrimidin-4-one] | 180 |  |  | change in vivo at 10 mg/kg [1]: -8%
CCc1nn(C2CCCC2)c2nc(CN3CCCc4ccccc43)[nH]c(=O)c12 [16(b), 1-cyclopentyl-3-ethyl-6-(1,2,3,4-tetrahydro-1-quinolinylmethyl)pyrazolo[3,4-d]pyrimidin-4-one] |  |  | 32 | inhibition at 10 µM (cGMP-PDE V; 10 μM): 90%
CCc1[nH]n(C2CCCC2)c2nc(CN3CCc4ccccc4C3)nc(=O)c1-2 [15(c), 1-cyclopentyl-3-ethyl-6-(1,2,3,4-tetrahydro-2-isoquinolinylmethyl)pyrazolo[3,4-d]pyrimidin-4-one] | 1770 |  |  | 
CCc1[nH]n(C2CCCC2)c2nc(Cc3ccccc3O)nc(=O)c1-2 [Example 30, 1-cyclopentyl-3-ethyl-6-(2-hydroxyphenylmethyl)pyrazolo[3,4-d]pyrimidin-4-one] |  | 43 | 73 | 
